The test system of this assay is P388 leukemia ip, CD2F1 mice, survival T/C. Nature of the assay: NCI In Vivo Anticancer Drug Screen. Data for tumor model P388 Leukemia (intraperitoneal) in CD2F1 (CDF1) mice. To be noted: endpoint: median survival time, higher = longer survival. In a few lines:
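Mice carrying the transplanted tumor received test compound or vehicle. Survival was recorded in each group, and the value is the treated-group measurement divided by that of the vehicle-treated control group.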

Setting [1] is: dose: 50.0 mg/kg/injection, schedule: Q01DX005 (ip), vehicle: saline with Tween-80.
[2] abbreviates: dose: 100.0 mg/kg/injection, schedule: Q01DX005 (ip), vehicle: saline with Tween-80.
Setting [3] is: dose: 200.0 mg/kg/injection, schedule: Q01DX005 (ip), vehicle: saline with Tween-80.
Where [4] appears, read: dose: 60.0 mg/kg/injection, schedule: Q01DX005 (ip), vehicle: saline with Tween-80.
The mark [5] stands for this setting: dose: 120.0 mg/kg/injection, schedule: Q01DX005 (ip), vehicle: saline with Tween-80.
The mark [6] stands for this setting: dose: 240.0 mg/kg/injection, schedule: Q01DX005 (ip), vehicle: saline with Tween-80.
[7] abbreviates: dose: 50.0 mg/kg/injection, schedule: Q01DX009 (ip), vehicle: Klucel (hydroxypropylcellulose) (HPC).
Where [8] appears, read: dose: 100.0 mg/kg/injection, schedule: Q01DX009 (ip), vehicle: Klucel (hydroxypropylcellulose) (HPC).
Setting [9] is: dose: 200.0 mg/kg/injection, schedule: Q01DX009 (ip), vehicle: Klucel (hydroxypropylcellulose) (HPC).
The mark [10] stands for this setting: dose: 200.0 mg/kg/injection, schedule: Q01DX009 (ip), vehicle: saline.
[11] abbreviates: dose: 50.0 mg/kg/injection, schedule: Q01DX009 (ip), vehicle: saline with Tween-80.
The mark [12] stands for this setting: dose: 100.0 mg/kg/injection, schedule: Q01DX009 (ip), vehicle: saline with Tween-80.

Consider 19 molecules from PubChem BioAssay AID330 (DTP/NCI, 2004).

Several values for one entry are separate records, joined by “and”; a condition that tells them apart may be missing. Equal values may be shown once. Inconclusive results and toxic doses are left out.

As for `CCOC/C(=N\NS(=O)(=O)c1ccc(C)cc1)C1(O)Cc2c(O)c3c(c(O)c2C(O)C1)C(=O)c1c(OC)cccc1C3=O` (configuration not stated), the T/C by setting is: (dose: 1.56 mg/kg/injection, schedule: Q01DX009 (ip), vehicle: other) 100 % of control; (dose: 3.13 mg/kg/injection, schedule: Q01DX009 (ip), vehicle: other) 100 % of control; (dose: 6.25 mg/kg/injection, schedule: Q01DX009 (ip), vehicle: other) 103 % of control; (dose: 12.5 mg/kg/injection, schedule: Q01DX009 (ip), vehicle: other) 107 % of control; (dose: 25.0 mg/kg/injection, schedule: Q01DX009 (ip), vehicle: other) 94 % of control.
For `Cc1c2cnccc2c(C)c2c1c1ccccc1n2CCCCCCCCCCCCn1c2ccccc2c2c(C)c3cnccc3c(C)c21`, the T/C is, setting by setting: (dose: 25.0 mg/kg/injection, schedule: Q04DX002 (ip), vehicle: saline with Tween-80) 98 % of control; (dose: 50.0 mg/kg/injection, schedule: Q04DX002 (ip), vehicle: saline with Tween-80) 100 % of control; (dose: 100.0 mg/kg/injection, schedule: Q04DX002 (ip), vehicle: saline with Tween-80) 100 % of control; (dose: 200.0 mg/kg/injection, schedule: Q04DX002 (ip), vehicle: saline with Tween-80) 98 % of control.
Consider `O=C(O)C(CBr)CBr`, for which the T/C was 107 % of control (dose: 25.0 mg/kg/injection, schedule: Q01DX009 (ip), vehicle: water); 106 % of control (dose: 50.0 mg/kg/injection, schedule: Q01DX009 (ip), vehicle: water); 100 % of control (dose: 100.0 mg/kg/injection, schedule: Q01DX009 (ip), vehicle: water).
For `O=C(Nc1nc(-c2ccccc2)cs1)OCC(Cl)(Cl)Cl`, the T/C runs as follows: under setting [1], 93 % of control; under setting [2], 91 % of control; under setting [3], 96 % of control.
`C[SiH]12(OC(C(F)(F)F)(C(F)(F)F)c3ccccc31)OC(C(F)(F)F)(C(F)(F)F)c1ccccc12`: the T/C (dose: 25.0 mg/kg/injection, schedule: Q01DX005 (ip), vehicle: saline with Tween-80) is 100 % of control and the T/C under setting [1] was 102 % of control.
For the molecule `O=C1NC(=O)C(CCO)(c2ccccc2)C(=O)N1`, the T/C is 88 % of control under setting [4], 105 % of control under setting [5] and 100 % of control under setting [6].
As to `COc1ccc(C(C)c2cc3c(cc2OCCO)OCO3)cc1` (configuration not stated), the T/C runs as follows: under setting [1], 105 % of control; under setting [2], 102 % of control; under setting [3], 105 % of control.
For `O=P(OCC(F)(F)F)(c1ccccc1)c1ccccc1`, the T/C runs as follows: under setting [1], 108 % of control; under setting [2], 104 % of control; under setting [3], 112 % of control.
Turning to `CNC(=O)c1ccccc1C(=O)c1ccccc1OC`, the T/C is, setting by setting: (dose: 50.0 mg/kg/injection, schedule: Q01DX005 (ip), vehicle: Klucel (hydroxypropylcellulose) (HPC)) 104 % of control; (dose: 100.0 mg/kg/injection, schedule: Q01DX005 (ip), vehicle: Klucel (hydroxypropylcellulose) (HPC)) 99 % of control; (dose: 200.0 mg/kg/injection, schedule: Q01DX005 (ip), vehicle: Klucel (hydroxypropylcellulose) (HPC)) 97 % of control.
Consider `c1nnc(NC(Nc2nncs2)C2CCCCC2)s1`, for which the T/C was 98 % of control (dose: 30.0 mg/kg/injection, schedule: Q01DX005 (ip), vehicle: saline with Tween-80); 95 % of control under setting [4]; 90 % of control and 92 % of control under setting [5]; 121 % of control under setting [6].
On to `CCOC(=O)Nc1cc2c(c(N)n1)N=C(c1ccccc1)CN2`, for which the T/C is, setting by setting: (dose: 2.6 mg/kg/injection, schedule: Q04DX003 (ip), vehicle: saline with Tween-80) 119 % of control; (dose: 3.0 mg/kg/injection, schedule: Q01DX005 (ip), vehicle: saline with Tween-80) 117 % of control and 123 % of control; (dose: 3.0 mg/kg/injection, schedule: Q01DX009 (ip), vehicle: saline with Tween-80) 156 % of control; (dose: 6.0 mg/kg/injection, schedule: Q01DX009 (ip), vehicle: saline with Tween-80) 105 % of control; (dose: 6.0 mg/kg/injection, schedule: Q04DX003 (ip), vehicle: saline with Tween-80) 151 % of control; (dose: 6.25 mg/kg/injection, schedule: Q01DX001 (ip), vehicle: saline with Tween-80) 118 % of control. In addition, the T/C by setting is: (dose: 9.0 mg/kg/injection, schedule: Q04DX003 (ip), vehicle: saline with Tween-80) 173 % of control; (dose: 12.0 mg/kg/injection, schedule: Q01DX001 (ip), vehicle: saline with Tween-80) 151 % of control and 157 % of control; (dose: 12.5 mg/kg/injection, schedule: Q01DX001 (ip), vehicle: saline with Tween-80) 150 % of control; (dose: 18.0 mg/kg/injection, schedule: Q01DX001 (ip), vehicle: saline with Tween-80) 168 % of control.
On to `Nc1nc(F)nc2c1ncn2C1OC(COP(=O)(O)O)C(O)C1O` (configuration not stated), for which the T/C runs as follows: (dose: 12.5 mg/kg/injection, schedule: Q01DX009 (ip), vehicle: Klucel (hydroxypropylcellulose) (HPC)) 110 % of control; (dose: 25.0 mg/kg/injection, schedule: Q01DX009 (ip), vehicle: Klucel (hydroxypropylcellulose) (HPC)) 117 % of control; under setting [7], 120 % of control; (dose: 50.0 mg/kg/injection, schedule: Q04DX002 (ip), vehicle: saline) 100 % of control; under setting [8], 153 % of control and 165 % of control; (dose: 100.0 mg/kg/injection, schedule: Q04DX002 (ip), vehicle: saline) 107 % of control. For the same molecule, the T/C (dose: 175.0 mg/kg/injection, schedule: Q01DX009 (ip), vehicle: saline) is 203 % of control and 213 % of control; the T/C under setting [9] was 111 % of control and 215 % of control; the T/C under setting [10] was 222 % of control and 224 % of control; the T/C (dose: 200.0 mg/kg/injection, schedule: Q04DX002 (ip), vehicle: saline) is 111 % of control and 117 % of control; the T/C (dose: 225.0 mg/kg/injection, schedule: Q01DX009 (ip), vehicle: saline) is 230 % of control and 233 % of control; the T/C (dose: 250.0 mg/kg/injection, schedule: Q01DX009 (ip), vehicle: saline) was 236 % of control and 241 % of control. The T/C (dose: 400.0 mg/kg/injection, schedule: Q04DX002 (ip), vehicle: saline) is 123 % of control; the T/C (dose: 1500.0 mg/kg/injection, schedule: Q01DX001 (ip), vehicle: saline) is 155 % of control; the T/C (dose: 1600.0 mg/kg/injection, schedule: Q04DX002 (ip), vehicle: saline) is 182 % of control.
Turning to `O=C(O)c1ccccc1SSC(=S)N1CCOCC1`, the T/C was 93 % of control under setting [7], 108 % of control under setting [8] and 118 % of control under setting [9].
In the case of `NC1CCC2CCCCC2C1` (configuration not stated), the T/C runs as follows: (dose: 100.0 mg/kg/injection, schedule: Q01DX001 (ip), vehicle: saline) 100 % of control; (dose: 200.0 mg/kg/injection, schedule: Q01DX001 (ip), vehicle: saline) 104 % of control.
As for `OCCn1nc2c(c1-c1ccccn1)CCCc1ccccc1-2`, the T/C was 104 % of control (dose: 100.0 mg/kg/injection, schedule: Q04DX002 (ip), vehicle: gum acacia); 97 % of control (dose: 200.0 mg/kg/injection, schedule: Q04DX002 (ip), vehicle: gum acacia); 92 % of control (dose: 400.0 mg/kg/injection, schedule: Q04DX002 (ip), vehicle: gum acacia).
Turning to `COc1ccc(N=Cc2ccc(C=Nc3ccc(OC)cc3OC)cc2)c(OC)c1`, the T/C is 93 % of control (dose: 50.0 mg/kg/injection, schedule: Q01DX009 (ip), vehicle: saline); 96 % of control (dose: 100.0 mg/kg/injection, schedule: Q01DX009 (ip), vehicle: saline); 91 % of control under setting [10].
For `O=C(NC1CCCCC1)NS(=O)(=O)c1ccc(CCNC(=O)c2cccc3c2OCC3)cc1`, the T/C by setting is: under setting [11], 100 % of control; under setting [12], 99 % of control; (dose: 200.0 mg/kg/injection, schedule: Q01DX009 (ip), vehicle: saline with Tween-80) 98 % of control.
Take `c1cnc2c(c1)Sc1ncccc1S2`: the T/C runs as follows: under setting [11], 96 % of control; under setting [12], 92 % of control.
For the molecule `C[n+]1cccc2c1-c1c(ccc[n+]1C)C2`, the T/C runs as follows: (dose: 50.0 mg/kg/injection, schedule: Q01DX005 (ip), vehicle: saline) 108 % of control; (dose: 100.0 mg/kg/injection, schedule: Q01DX005 (ip), vehicle: saline) 105 % of control; (dose: 200.0 mg/kg/injection, schedule: Q01DX005 (ip), vehicle: saline) 104 % of control.
